This is an account of results in ChEMBL document CHEMBL1150142, “New onoceranoid triterpene constituents from Lansium domesticum” (J Nat Prod, 2002).

Molecules are shown by their SMILES. Activity calls are given as the source filed them. The calls are words filed in the database; no cut-off is given here.

This assay in a line: Inhibition of trypsin.
With `C=C(C)[C@@H]1CC=C(C)[C@H](CC[C@H]2C(=C)CC[C@H]3C(C)(C)C(=O)CC[C@]23C)[C@@]1(C)CCC(=O)OC`, the outcome was inactive. As to `C=C1CC[C@H]2C(C)(C)[C@@H](O)CC[C@]2(C)[C@H]1CC[C@H]1C(C)=CC[C@H]2C(C)(C)C(=O)CC[C@]12C`, the result was inactive. Next, `C=C1CC[C@H]2C(C)(C)C(=O)CC[C@]2(C)[C@H]1CC[C@H]1C(C)=CC[C@H]2C(C)(C)[C@@H](O)CC[C@]12C`: “inactive”; `C=C(C)[C@@H]1CC=C(C)[C@H](CC[C@H]2C(=C)CC[C@H]3C(C)(C)C(=O)CC[C@]23C)[C@@]1(C)CCC(=O)O`: “inactive”. The result for `C=C(C)[C@@H]1CCC(=C)[C@H](CC[C@H]2C(C)=CC[C@@H](C(=C)C)[C@]2(C)CCC(=O)O)[C@@]1(C)CCC(=O)O` reads “inactive”.
